Laboratory results published in patent publication US12109207B2, “Methods of using 4(1H)-quinolone derivatives” (Academia Sinica, priority 2019, dated 2024).
Read-outs that look alike come from different tables or passages of the source.

Columns and labels:
H1975 cells = experiment: Cell cytotoxicity assay (MTS), H1975; format: cell-based, human; conditions: H1975 cells, 72 h, MTS, read-out: IC50
Protocol: (§1) Cells were seeded into the wells of 96-well plates (2000 cells/well). After an overnight culture, the cells were treated with different concentrations of a compound for 72 h. The CellTiter 96 AQueous one-solution cell proliferation assay (MTS) reagent was used to determine cytotoxicity. After treatment with a compound, 20 μL of the MTS reagent was added to each well and the plates were incubated at 37° C. for 1-4 h. Next, the absorbance at 490 nm of the culture medium in each well was determined using a VersaMax microplate reader (Molecular Devices).

A549 = experiment: Cell cytotoxicity assay (MTS), A549; format: cell-based; conditions: Homo sapiens, A549, 72 h
Protocol: as §1

PC9 = experiment: Cell cytotoxicity assay (MTS), PC9; format: cell-based; conditions: Homo sapiens, PC-9, PC9, 72 h
Protocol: as §1

BT-549 = experiment: Cell cytotoxicity assay (MTS), BT-549; format: cell-based; conditions: Homo sapiens, BT-549, 72 h
Protocol: as §1

37T = experiment: Cell cytotoxicity assay (MTS), 37T; format: cell-based; conditions: Homo sapiens, 72 h
Protocol: as §1

SKOV-3 = experiment: Cell cytotoxicity assay (MTS), SKOV-3; format: cell-based; conditions: Homo sapiens, SK-OV-3
Protocol: as §1

Ovcar-3 = experiment: Cell cytotoxicity assay (MTS), Ovcar-3; format: cell-based; conditions: Homo sapiens
Protocol: as §1

KB = experiment: Cell cytotoxicity assay (MTS), KB; format: cell-based; conditions: Homo sapiens
Protocol: as §1

HT-29 = experiment: Cell cytotoxicity assay (MTS), HT-29; format: cell-based; conditions: Homo sapiens
Protocol: as §1

Colon205 = experiment: Cell cytotoxicity assay (MTS), Colon205; format: cell-based; conditions: Homo sapiens
Protocol: as §1

Du-145 = experiment: Cell cytotoxicity assay (MTS), Du-145; format: cell-based; conditions: Homo sapiens
Protocol: as §1

Molt4 = experiment: Cell cytotoxicity assay (MTS), Molt4; format: cell-based; conditions: Homo sapiens, MOLT-4
Protocol: as §1

CCRF-CEM = experiment: Cell cytotoxicity assay (MTS), CCRF-CEM; format: cell-based; conditions: Homo sapiens
Protocol: as §1

[1] = system: normal bronchial epithelial (NBE) cells; experiment: Cell cytotoxicity assay (MTS), normal bronchial epithelial cells; format: cell-based; conditions: Homo sapiens, normal cell line NBE (printed NEB in Table 2)
Protocol: as §1

[2] = system: human fibroblast (HFB) cells; experiment: Cell cytotoxicity assay (MTS), human fibroblast; format: cell-based; conditions: normal cell line HFB
Protocol: as §1

KBtax = experiment: Cell cytotoxicity assay (MTS), KBtax; format: cell-based, human
Protocol: as §1

KBvin = experiment: Cell cytotoxicity assay (MTS), KBvin; format: cell-based, human
Protocol: as §1

HDQP1 = experiment: Cell cytotoxicity assay, HDQP1; format: cell-based; conditions: Homo sapiens, HDQ-P1; TNBC cell line HDQP1
Protocol: as §1

23 cancer cell lines = experiment: Cytotoxicity against 23 cancer cell lines; format: cell-based, human
Protocol: as §1

H1975 xenograft tumor = H1975 xenograft tumor model; format: in vivo, BALB/c nude mice; conditions: day 25
Protocol: Using the H1975, MDA-MB-231, and KBtax xenograft models, tumors were established after inoculation into the right flanks of 6-week-old BALB/c nude mice (NARLabs, Taipei, Taiwan). After establishment of the tumors, vehicle and test compounds, which had been dissolved in DMSO, were each injected intraperitoneally into a separate group of animals three times per week. The body mass of each animal and tumor volumes were measured before each drug delivery. Tumor volume was calculated as 0.5W^2L (with W being the width of the smaller diameter and L being the length of the larger diameter). The animal experiment was carried out in accordance with the procedures and guidelines of the Institutional Animal Care and Use Committee, Institute of Biomedical Sciences, Academia Sinica.

Purified porcine tubulin = molecular target: T1, Purified porcine tubulin (Sus scrofa, UniProt P02554); experiment: In vitro tubulin polymerization assay; format: biochemical; conditions: 5 μM, A340 every min for 1 h at 37° C.
T1 construct: purchased Cytoskeleton
T1 sequence (P02554 whole entry): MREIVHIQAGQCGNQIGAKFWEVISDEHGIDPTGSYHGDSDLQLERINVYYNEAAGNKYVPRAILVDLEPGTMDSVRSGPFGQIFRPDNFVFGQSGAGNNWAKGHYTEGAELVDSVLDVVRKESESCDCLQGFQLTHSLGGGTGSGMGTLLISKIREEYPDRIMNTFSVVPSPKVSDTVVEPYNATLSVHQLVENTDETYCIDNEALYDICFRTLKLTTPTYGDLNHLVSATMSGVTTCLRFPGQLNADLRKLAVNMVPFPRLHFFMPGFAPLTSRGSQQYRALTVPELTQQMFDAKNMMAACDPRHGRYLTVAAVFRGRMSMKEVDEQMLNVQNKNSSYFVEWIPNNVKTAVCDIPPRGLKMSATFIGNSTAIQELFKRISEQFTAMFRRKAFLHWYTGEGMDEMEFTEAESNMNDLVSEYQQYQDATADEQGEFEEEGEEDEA
T1 sequence (P02550 whole entry partner): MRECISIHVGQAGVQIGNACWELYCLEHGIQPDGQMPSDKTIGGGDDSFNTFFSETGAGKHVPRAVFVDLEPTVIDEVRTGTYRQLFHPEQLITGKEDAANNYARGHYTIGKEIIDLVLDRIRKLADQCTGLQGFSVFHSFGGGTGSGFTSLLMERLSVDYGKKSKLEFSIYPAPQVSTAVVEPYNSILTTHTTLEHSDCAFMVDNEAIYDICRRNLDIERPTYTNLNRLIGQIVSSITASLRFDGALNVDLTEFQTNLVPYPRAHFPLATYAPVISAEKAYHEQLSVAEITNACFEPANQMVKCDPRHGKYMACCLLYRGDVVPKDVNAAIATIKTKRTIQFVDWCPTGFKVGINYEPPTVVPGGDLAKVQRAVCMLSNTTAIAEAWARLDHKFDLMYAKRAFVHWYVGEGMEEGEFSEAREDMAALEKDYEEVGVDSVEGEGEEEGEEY
Protocol: Reagents from a Tubulin Polymerization Assay kit (Cytoskeleton) were used according to the manufacturer's instructions. Purified porcine tubulin (4 mg/mL; >99% purity) in G-PEM buffer (80 mM PIPES, 2 mM MgCl2, 0.5 mM EGTA, 1 mM GTP, 15% glycerol, pH 6.9) was mixed with each test compound in the wells of a 96-well plate. Then, the A340 value was recorded each minute for 1 h at 37° C. with the VersaMax microplate reader.

CL1-0 and H1975 cells = experiment: Colony formation assay; format: cell-based, human; conditions: 12.5-200 nM, 14 days
Protocol: Cells were seeded into the wells of six-well plates (1000 cells/well). After overnight culture, the cells were treated with various concentrations of AS1712 for 2 weeks. Then, the colonies in each well were fixed with 3.7% paraformaldehyde, stained with 0.04% crystal violet, and dissolved in 1 ml DMSO. The absorbance at 590 nm of each DMSO solution was read using the VersaMax microplate reader.

[3] = molecular target: T2, purified centrosomes and tubulin (Sus scrofa, UniProt P02554); experiment: In vitro microtubule nucleation assay; format: biochemical, porcine
T2 construct: purchased Cytoskeleton
T2 sequence (P02554 whole entry): as the sequence (P02554 whole entry) above
T2 sequence (P02550 whole entry partner): as the sequence (P02550 whole entry partner) above
Protocol: Purified centrosomes were incubated with or without AS1712 and with porcine tubulin (Cytoskeleton) in 80 mM PIPES, 1 mM MgCl2, 1 mM EGTA, and 1 mM GTP, pH 6.8 for 8 min at 37° C. Microtubule asters were fixed in 1% glutaraldehyde, sedimented onto acid-treated coverslips, and finally subjected to immunofluorescence with anti-α-tubulin. The fiber lengths of the microtubule asters were measured using MetaMorph image analysis software (n=20/group).

tubulin polymerization (Purified porcine tubulin): directly inhibit tubulin polymerization | formation of microtubule asters from the centrosome [3]: substantially inhibited
SMILES: CCOC(=O)c1ccc2[nH]c(-c3ccccc3)cc(=O)c2c1 [AS1712, Ethyl 4-oxo-2-phenyl-1,4-dihydroquinoline-6-carboxylate]
IC50 (H1975 cells): 35 nM | IC50 (H1975 cells; Homo sapiens, NCI-H1975, 72 h): 33 ± 4.86 nM | IC50 (A549): 20 ± 0.98 nM | IC50 (PC9): 17 ± 2.09 nM | IC50 (BT-549): 33 ± 1.51 nM | IC50 (37T): 34 ± 2.99 nM | IC50 (SKOV-3): 50 ± 0.32 nM | IC50 (Ovcar-3): 28 ± 1.08 nM | IC50 (KB): 37 ± 0.27 nM | IC50 (HT-29): 48 ± 0.62 nM | IC50 (Colon205): 57 ± 5.17 nM | IC50 (Du-145): 47 ± 1.28 nM | IC50 (Molt4): 38 ± 1.03 nM | IC50 (CCRF-CEM): 45 ± 0.45 nM | IC50 [1]: > 10000 nM | IC50 [2]: > 10000 nM | IC50 (KBtax; Homo sapiens, KBtax, P-gp overexpressing, paclitaxel-selected KB subline): 30 ± 0.65 nM | RF, resistance factor (IC50 in resistant cell line/IC50 in parent cell line) (KBtax; KBtax vs KB): 0.81 | IC50 (KBvin; Homo sapiens, KBvin, P-gp overexpressing, vincristine-selected KB subline): 37 ± 0.77 nM | RF, resistance factor (IC50 in resistant cell line/IC50 in parent cell line) (KBvin; KBvin vs KB): 1 | IC50 (HDQP1): 68 ± 5.38 nM | IC50 (23 cancer cell lines; Homo sapiens, lung, breast, ovarian, head and neck, colon, prostate, leukemia lines, read-out: IC50 values for the 23 cancer cell lines tested): 16 to 84 nM | therapeutic window (23 cancer cell lines; cancer cell lines vs normal cells): > 100 fold | average tumor size (H1975 xenograft tumor; 4 mg/kg intraperitoneally three times a week): 871.3±106 mm^3 | average tumor size (H1975 xenograft tumor; 8 mg/kg intraperitoneally three times a week): 587.2±67 mm^3 | colony-forming abilities (CL1-0 and H1975 cells): suppressed in a dose-dependent manner
